Test results from patent US20260256792A1, “TREATMENT OF CHRONIC SPONTANEOUS URTICARIA BY ADMINISTERING (R)-2-[3-[4-AMINO-3-(2-FLUORO-4-PHENOXY-PHENYL)PYRAZOLO[3,4-D]PYRIMIDIN-1-YL]PIPERIDINE-1-CARBONYL]-4-METHYL-4-[4-(OXETAN-3-YL)PIPERAZIN-1-YL]PENT-2-ENENITRILE” (priority 2023, published 2026).

Tested on: moderate-to-severe chronic spontaneous urticaria (CSU)
Test: Phase 2 CSU study: urticaria activity score over 7 days (UAS7)
Type: in vivo, human
Design: key to UAS7 Median / UAS7 Change from baseline Median / UAS7 change from baseline, Q1 / UAS7 change from baseline, Q3 / UAS7 change from baseline, Max / UAS7 Change from baseline LS Mean (SE): UAS7 points; daily UAS score ranges 0–6 points/day, over 7 days
Source text: The study comprises a 12 week, randomized, double-blind, placebo-controlled, multi-center, dose-ranging efficacy and safety phase, followed by a 40 week open label extension (OLE) phase (see FIG. 1). The study consists of three phases and an optional OLE phase. […] Clinically, CSU is characterized by the spontaneous and recurrent appearance of pruritic hives. The proposed primary endpoints were the UAS7 at Week 12 in EU and EU reference countries and the ISS7 in the US. Regardless of where a participant was from, all assessments were the same. The UAS7 score is a composite score containing both the HSS7 and the ISS7. This allowed a global assessment of the two key components of urticaria: hives and itch. […] The UAS is a validated PRO measure. […] The daily UAS scores range from 0 to 6 point/day. […] Patients were to complete the UAS using the e-diary. […] The following secondary endpoints were to be analyzed using the same approach as for the primary endpoint: • Change from baseline in UAS7 at Week 4 • Change from baseline in UAS7 at Week 12 (for US and US reference countries) • Change from baseline in ISS7 at Week 12 (except US and US reference countries) • Change from baseline in HSS7 at Week 12 The following responder secondary endpoints were to be analyzed using the Cochran-Mantel-Haenszel test adjusted by region: • Proportion of participants with UAS7<6 at Week 12 • Proportion of participants with UAS7=0 at Week 12 Participants who received selected prohibited medications and/or rescue medications were to be considered as non-responders for time points after the medication usage. For other participants, all available data including those collected during the off-treatment period were to be used to determine the responder/non-responder status. Missing data were to be considered as non-responders.

[1] = Week 6, 400 mg BID, ITT population
[2] = Week 6, 400 mg BID, Omalizumab-Naïve
[3] = Week 6, 400 mg BID, Prior Omalizumab Use
[4] = Week 6, 400 mg BID, omalizumab-naive participants
[5] = Week 6, 400 mg QPM, ITT population
[6] = Week 6, 400 mg QPM, Omalizumab-Naïve
[7] = Week 6, 400 mg QPM, Prior Omalizumab Use
[8] = Week 6, 400 mg QPM, omalizumab-naive participants
[9] = Week 6, 400 mg TID, ITT population
[10] = Week 6, 400 mg TID, Omalizumab-Naïve
[11] = Week 6, 400 mg TID, Prior Omalizumab Use
[12] = Week 6, 400 mg TID, omalizumab-naive participants
[13] = Week 7, 400 mg BID, ITT population
[14] = Week 7, 400 mg BID, Omalizumab-Naïve

Question: For `CC(C)(C=C(C#N)C(=O)N1CCC[C@@H](n2nc(-c3ccc(Oc4ccccc4)cc3F)c3c(N)ncnc32)C1)N1CCN(C2COC2)CC1` [rilzabrutinib, (R)-2-[3-[4-amino-3-(2-fluoro-4-phenoxy-phenyl)pyrazolo[3,4-d]pyrimidin-1-yl]piperidine-1-carbonyl]-4-methyl-4-[4-(oxetan-3-yl)piperazin-1-yl]pent-2-enenitrile], which “OR for rilzabrutinib vs. placebo, UAS7 reduction of 10 points or more” value [1] is on record?
Answer: The value was 1.222.

Question: What about the “RRD (%) for rilzabrutinib vs. placebo, UAS7 reduction of 10 points or more” value (“RRD (%) … UAS7 reduction of 10 points or more” below) [1] of the same compound?
Answer: Its value is 4.9 %.

Question: What about the “Responder, UAS7 reduction from baseline of 10 points or more” value [1] of the same compound?
Answer: The value was 21 (51.2) n (%).

Question: And the “UAS7 Change from baseline Mean (SD)” value [2]?
Answer: Its value is −12.76 (11.42).

Question: And the “UAS7 Mean (SD)” value [2]?
Answer: Its value is 17.02 (12.76).

Question: What about the “UAS7 Median” value [2] of the same compound?
Answer: Its value is 16.50.

Question: And the “UAS7 Percent change from baseline Mean (SD)” value (shortened to “UAS7 Percent change … (SD)”) [2]?
Answer: Its value is −43.89 (39.18) %.

Question: And the “UAS7 Percent change from baseline Median” value [2]?
Answer: The value was −38.06%.

Question: And the “UAS7 Change from baseline Mean (SD)” value [3]?
Answer: The value was −18.97 (18.81).

Question: And the “UAS7 Change from baseline Median” value [3]?
Answer: The value was −26.00.

Question: And the “UAS7 Mean (SD)” value [3]?
Answer: Its value is 13.03 (15.45).

Question: And the “UAS7 Median” value [3]?
Answer: The value was 5.83.

Question: And the “UAS7 Percent change … (SD)” value [3]?
Answer: The value was −54.26 (54.98) %.

Question: What about the “UAS7 Percent change from baseline Median” value [3] of the same compound?
Answer: Its value is −86.11%.

Question: And the “Non-responder, UAS7 reduction from baseline of 10 points or more” value (from here on “Non-responder, UAS7 reduction”) [4]?
Answer: Its value is 17 (48.6) n (%).

Question: What about the “OR for rilzabrutinib vs. placebo, UAS7 reduction of 10 points or more” value [4] of the same compound?
Answer: The value was 1.486.

Question: What about the “RRD (%) … UAS7 reduction of 10 points or more” value [4] of the same compound?
Answer: Its value is 9.8 %.

Question: And the “Responder, UAS7 reduction from baseline of 10 points or more” value [4]?
Answer: Its value is 18 (51.4) n (%).

Question: What about the “Non-responder, UAS7 reduction” value [5] of the same compound?
Answer: The value was 22 (57.9) n (%).

Question: And the “OR for rilzabrutinib vs. placebo, UAS7 reduction of 10 points or more” value [5]?
Answer: The value was 0.959.

Question: And the “RRD (%) … UAS7 reduction of 10 points or more” value [5]?
Answer: Its value is −1.0 %.

Question: What about the “Responder, UAS7 reduction from baseline of 10 points or more” value [5] of the same compound?
Answer: The value was 16 (42.1) n (%).

Question: And the “UAS7 Change from baseline Mean (SD)” value [6]?
Answer: Its value is −11.79 (10.56).

Question: What about the “UAS7 Change from baseline Median” value [6] of the same compound?
Answer: Its value is −9.00.

Question: What about the “UAS7 Mean (SD)” value [6] of the same compound?
Answer: Its value is 20.21 (10.42).

Question: And the “UAS7 Median” value [6]?
Answer: Its value is 18.25.

Question: And the “UAS7 Percent change … (SD)” value [6]?
Answer: The value was −35.97 (30.17) %.

Question: What about the “UAS7 Percent change from baseline Median” value [6] of the same compound?
Answer: Its value is −37.30%.

Question: What about the “UAS7 Change from baseline Mean (SD)” value [7] of the same compound?
Answer: Its value is −24.00 (NC).

Question: What about the “UAS7 Change from baseline Median” value [7] of the same compound?
Answer: Its value is −24.00.

Question: And the “UAS7 Mean (SD)” value [7]?
Answer: Its value is 17.00 (NC).

Question: And the “UAS7 Median” value [7]?
Answer: Its value is 17.00.

Question: And the “UAS7 Percent change … (SD)” value [7]?
Answer: Its value is −58.54 (NC) %.

Question: And the “UAS7 Percent change from baseline Median” value [7]?
Answer: Its value is −58.54%.

Question: And the “Non-responder, UAS7 reduction” value [8]?
Answer: The value was 22 (59.5) n (%).

Question: And the “OR for rilzabrutinib vs. placebo, UAS7 reduction of 10 points or more” value [8]?
Answer: Its value is 0.981.

Question: What about the “RRD (%) … UAS7 reduction of 10 points or more” value [8] of the same compound?
Answer: Its value is −0.5 %.

Question: What about the “Responder, UAS7 reduction from baseline of 10 points or more” value [8] of the same compound?
Answer: Its value is 15 (40.5) n (%).

Question: What about the “Non-responder, UAS7 reduction” value [9] of the same compound?
Answer: The value was 16 (39.0) n (%).

Question: What about the “OR for rilzabrutinib vs. placebo, UAS7 reduction of 10 points or more” value [9] of the same compound?
Answer: Its value is 1.787.

Question: And the “RRD (%) … UAS7 reduction of 10 points or more” value [9]?
Answer: Its value is 14.2 %.

Question: What about the “Responder, UAS7 reduction from baseline of 10 points or more” value [9] of the same compound?
Answer: The value was 25 (61.0) n (%).

Question: And the “UAS7 Change from baseline Mean (SD)” value [10]?
Answer: The value was −15.94 (12.03).

Question: What about the “UAS7 Change from baseline Median” value [10] of the same compound?
Answer: The value was −15.00.

Question: What about the “UAS7 Mean (SD)” value [10] of the same compound?
Answer: Its value is 14.10 (11.23).

Question: What about the “UAS7 Median” value [10] of the same compound?
Answer: The value was 14.00.

Question: What about the “UAS7 Percent change … (SD)” value [10] of the same compound?
Answer: The value was −52.07 (35.76) %.

Question: What about the “UAS7 Percent change from baseline Median” value [10] of the same compound?
Answer: Its value is −47.83%.

Question: What about the “UAS7 Change from baseline Mean (SD)” value [11] of the same compound?
Answer: The value was −26.03 (14.05).

Question: And the “UAS7 Change from baseline Median” value [11]?
Answer: Its value is −26.58.

Question: And the “UAS7 Median” value [11]?
Answer: The value was 3.00.

Question: What about the “UAS7 Percent change … (SD)” value [11] of the same compound?
Answer: The value was −78.40 (28.08) %.

Question: And the “UAS7 Percent change from baseline Median” value [11]?
Answer: Its value is −89.66%.

Question: And the “Non-responder, UAS7 reduction” value [12]?
Answer: Its value is 15 (42.9) n (%).

Question: What about the “OR for rilzabrutinib vs. placebo, UAS7 reduction of 10 points or more” value [12] of the same compound?
Answer: Its value is 1.770.

Question: What about the “RRD (%) … UAS7 reduction of 10 points or more” value [12] of the same compound?
Answer: The value was 14.6 %.

Question: And the “Responder, UAS7 reduction from baseline of 10 points or more” value [12]?
Answer: Its value is 20 (57.1) n (%).

Question: What about the “Non-responder, UAS7 reduction” value [13] of the same compound?
Answer: The value was 18 (43.9) n (%).

Question: What about the “OR for rilzabrutinib vs. placebo, UAS7 reduction of 10 points or more” value [13] of the same compound?
Answer: The value was 1.899.

Question: What about the “RRD (%) … UAS7 reduction of 10 points or more” value [13] of the same compound?
Answer: The value was 15.6 %.

Question: What about the “Responder, UAS7 reduction from baseline of 10 points or more” value [13] of the same compound?
Answer: Its value is 23 (56.1) n (%).

Question: What about the “UAS7 Change from baseline Mean (SD)” value [14] of the same compound?
Answer: Its value is −14.03 (11.20).

Question: And the “UAS7 Change from baseline Median” value [14]?
Answer: The value was −12.75.

Question: What about the “UAS7 Mean (SD)” value [14] of the same compound?
Answer: The value was 15.55 (11.97).

Question: And the “UAS7 Median” value [14]?
Answer: Its value is 14.88.

Question: What about the “UAS7 Percent change … (SD)” value [14] of the same compound?
Answer: Its value is −48.14 (36.14) %.
